Results published in ChEMBL document CHEMBL4354805, “Discovery of MK-8719, a Potent O-GlcNAcase Inhibitor as a Potential Treatment for Tauopathies” (J Med Chem, 2019).

Tests used:
[1] = AUC (0 to 24 hrs) in rat brain at 10 mg/kg, po measured upto 24 hrs; format: ADME, organism-based; set-up: dose 10 mg/kg, time < 24 hr, route oral; settings: in vivo
MDR1 = test: Apparent permeability in pig LLC-PK1 cells transfected with MDR1; format: ADME, cell-based, Sus scrofa
[2] = molecular target: T1, Beta-hexosaminidase subunit beta (Homo sapiens, UniProt P07686); test: Inhibition of human beta hexosaminidase assessed as inhibitory constant using 4-methylumbelliferyl N-acetyl-beta-D-glucosaminide dihydrate as substrate measured every 60 sec for 45 mins by fluorescence spectrophotometry
T1 sequence (P07686 whole entry): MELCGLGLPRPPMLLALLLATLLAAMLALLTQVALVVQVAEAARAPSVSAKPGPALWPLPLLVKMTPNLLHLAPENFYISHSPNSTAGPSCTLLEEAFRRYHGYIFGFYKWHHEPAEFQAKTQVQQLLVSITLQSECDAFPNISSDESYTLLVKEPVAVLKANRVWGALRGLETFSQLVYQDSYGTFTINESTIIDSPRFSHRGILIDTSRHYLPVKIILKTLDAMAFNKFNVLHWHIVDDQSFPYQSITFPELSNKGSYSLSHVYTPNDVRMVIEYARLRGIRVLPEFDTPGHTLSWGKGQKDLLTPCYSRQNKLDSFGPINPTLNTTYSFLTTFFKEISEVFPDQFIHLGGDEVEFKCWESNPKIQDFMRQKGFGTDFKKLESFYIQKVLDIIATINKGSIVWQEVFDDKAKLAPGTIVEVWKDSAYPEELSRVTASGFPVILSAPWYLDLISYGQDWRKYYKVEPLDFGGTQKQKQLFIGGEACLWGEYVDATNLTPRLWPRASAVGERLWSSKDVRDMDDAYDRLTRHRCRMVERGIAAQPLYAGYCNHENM

[3] = Fraction unbound in Wistar Han rat plasma at 2.5 uM by equilibrium dialysis; format: ADME, cell-free
[4] = AUCN in Wistar Han rat at 10 mg/kg, po; format: ADME, organism-based; settings: in vivo
[5] = Clearance in Wistar Han rat at 2 mg/kg, iv; format: ADME, organism-based; settings: in vivo
[6] = Oral bioavailability in Wistar Han rat at 10 mg/kg; format: ADME, organism-based; settings: in vivo
Rattus norvegicus [7] = test: Elevation of O-protein in rat brain at 3 mg/kg, po measured after 8 hrs relative to control; format: functional
Rattus norvegicus [8] = test: Elevation of O-protein in rat brain at 3 mg/kg, po measured after 24 hrs relative to control; format: functional
[9] = Drug uptake in rat brain at 3 mg/kg, po measured after 8 hrs; format: ADME, organism-based; settings: in vivo
[10] = Drug uptake in rat brain at 3 mg/kg, po measured after 24 hrs; format: ADME, organism-based; settings: in vivo
[11] = Ratio of drug uptake in rat brain to plasma at 3 mg/kg, po measured after 8 hrs; format: ADME, organism-based; settings: read-out: BPR
[12] = Oral bioavailability in Beagle dog at 3 mg/kg; format: ADME, organism-based, Canis lupus familiaris; settings: in vivo
[13] = Fraction unbound in Beagle dog plasma at 1 uM by equilibrium dialysis; format: ADME, cell-free, Canis lupus familiaris
[14] = AUCN in Beagle dog at 3 mg/kg, po; format: ADME, organism-based, Canis lupus familiaris; settings: in vivo
[15] = Clearance in Beagle dog at 1 mg/kg, iv; format: ADME, organism-based, Canis lupus familiaris; settings: in vivo
[16] = Half life in Beagle dog at 1 mg/kg, iv; format: ADME, organism-based, Canis lupus familiaris; settings: in vivo
[17] = Volume of distribution at steady state in Beagle dog at 1 mg/kg, iv or 3 mg/kg, po; format: ADME, organism-based, Canis lupus familiaris; settings: in vivo, read-out: Vdss
[18] = Fraction unbound in rhesus monkey plasma at 1 uM by equilibrium dialysis; format: ADME, cell-free, Macaca mulatta
[19] = AUCN in rhesus monkey at 3 mg/kg, po; format: ADME, organism-based, Macaca mulatta; settings: in vivo
[20] = Half life in rhesus monkey at 1 mg/kg, iv; format: ADME, organism-based, Macaca mulatta; settings: in vivo
Cytochrome P450 3A4 = Cytochrome P450 3A4 (Homo sapiens, UniProt P08684); test: Induction of CYP3A4 in human hepatocytes upto 20 uM; format: ADME, cell-based
Cytochrome P450 1A2 = molecular target: T2, Cytochrome P450 1A2 (Homo sapiens, UniProt P05177); test: Induction of CYP1A2 in human hepatocytes upto 20 uM; format: ADME, cell-based
T2 sequence (P05177 whole entry): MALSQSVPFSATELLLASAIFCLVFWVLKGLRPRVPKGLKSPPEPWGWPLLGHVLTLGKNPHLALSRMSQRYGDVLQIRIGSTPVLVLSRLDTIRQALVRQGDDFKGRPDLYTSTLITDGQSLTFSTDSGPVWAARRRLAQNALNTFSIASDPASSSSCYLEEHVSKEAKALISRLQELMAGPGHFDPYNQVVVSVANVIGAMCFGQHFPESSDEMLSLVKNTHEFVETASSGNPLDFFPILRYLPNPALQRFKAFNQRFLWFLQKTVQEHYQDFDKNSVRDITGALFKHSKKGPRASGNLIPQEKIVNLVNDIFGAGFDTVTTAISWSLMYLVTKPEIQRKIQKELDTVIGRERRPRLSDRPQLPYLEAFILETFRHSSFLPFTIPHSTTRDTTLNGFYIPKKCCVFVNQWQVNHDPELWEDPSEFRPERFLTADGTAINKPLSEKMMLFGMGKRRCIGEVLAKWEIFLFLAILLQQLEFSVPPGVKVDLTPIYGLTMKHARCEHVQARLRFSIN

[21] = Protein binding in monkey plasma; format: ADME, cell-free, Macaca mulatta; settings: rhesus monkey, read-out: PPB
[22] = Protein binding in human plasma; format: ADME, cell-free; settings: read-out: PPB
[23] = Ratio of drug level in human blood to plasma; format: ADME, cell-free; settings: whole blood
[24] = Stability in rat hepatocytes assessed as parent compound remaining at 10 uM incubated for 120 mins; format: ADME, cell-based, Hepatocyte; settings: read-out: Stability
[25] = Stability in dog hepatocytes assessed as parent compound remaining at 10 uM incubated for 120 mins; format: ADME, cell-based, Canis lupus familiaris, Hepatocyte; settings: read-out: Stability
[26] = Stability in human hepatocytes assessed as parent compound remaining at 10 uM incubated for 120 mins; format: ADME, cell-based, Hepatocyte; settings: read-out: Stability
[27] = Stability in monkey hepatocytes assessed as parent compound remaining at 10 uM incubated for 120 mins; format: ADME, cell-based, Macaca mulatta, Hepatocyte; settings: rhesus monkey, read-out: Stability
Nav1.5 = Nav1.5 (Homo sapiens, UniProt Q14524); test: Inhibition of Nav1.5 (unknown origin) at 30 uM
IKr (KCNH2) = IKr (KCNH2) (Homo sapiens, UniProt Q12809); test: Inhibition of IKr (unknown origin) at 30 uM
Canis familiaris = test: Hemodynamic activity in telemetered dog assessed as change in EKG parameter at 300 mg/kg, po; format: ADME, organism-based, Canis lupus familiaris; settings: in vivo
[28] = Toxicity in rat assessed as change in serum chemistry at 1000 mg/kg, po administered for 7 days and measured on day 8; format: organism-based; settings: in vivo, 168 h
[29] = Toxicity in rat assessed as change in histomorphology at 1000 mg/kg, po administered for 7 days and measured on day 8; format: organism-based; settings: in vivo, 168 h

Sequence of IKr (KCNH2) (Q12809 whole entry): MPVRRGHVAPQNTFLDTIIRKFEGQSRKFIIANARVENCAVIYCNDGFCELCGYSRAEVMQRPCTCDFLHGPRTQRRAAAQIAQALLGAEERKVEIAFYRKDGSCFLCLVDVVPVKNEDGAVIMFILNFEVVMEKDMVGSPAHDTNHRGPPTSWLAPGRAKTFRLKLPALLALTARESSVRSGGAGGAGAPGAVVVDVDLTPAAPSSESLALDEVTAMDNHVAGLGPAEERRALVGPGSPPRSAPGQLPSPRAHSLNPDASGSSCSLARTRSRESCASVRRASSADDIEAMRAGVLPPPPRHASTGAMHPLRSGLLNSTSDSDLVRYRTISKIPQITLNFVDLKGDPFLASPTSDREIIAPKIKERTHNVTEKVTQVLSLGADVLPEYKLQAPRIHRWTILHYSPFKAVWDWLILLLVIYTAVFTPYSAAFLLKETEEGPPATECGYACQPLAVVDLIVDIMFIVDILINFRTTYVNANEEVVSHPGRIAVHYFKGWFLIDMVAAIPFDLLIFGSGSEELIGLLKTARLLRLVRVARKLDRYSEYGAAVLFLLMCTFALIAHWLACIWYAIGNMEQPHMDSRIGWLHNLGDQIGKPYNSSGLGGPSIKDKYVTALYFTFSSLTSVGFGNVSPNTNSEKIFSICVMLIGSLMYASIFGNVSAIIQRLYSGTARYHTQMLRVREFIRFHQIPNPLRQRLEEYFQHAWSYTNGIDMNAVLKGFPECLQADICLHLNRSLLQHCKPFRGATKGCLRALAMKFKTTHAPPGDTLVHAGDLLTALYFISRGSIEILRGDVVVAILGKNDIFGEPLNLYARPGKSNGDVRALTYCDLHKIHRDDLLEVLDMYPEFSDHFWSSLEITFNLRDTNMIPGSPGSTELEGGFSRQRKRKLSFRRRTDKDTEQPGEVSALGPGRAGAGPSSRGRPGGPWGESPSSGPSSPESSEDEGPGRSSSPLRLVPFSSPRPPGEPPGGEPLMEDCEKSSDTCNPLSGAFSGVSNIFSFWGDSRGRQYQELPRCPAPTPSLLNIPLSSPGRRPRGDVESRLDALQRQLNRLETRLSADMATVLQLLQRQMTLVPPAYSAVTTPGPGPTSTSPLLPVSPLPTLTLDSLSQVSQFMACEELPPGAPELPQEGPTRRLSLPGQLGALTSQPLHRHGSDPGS
Sequence of Nav1.5 (Q14524 whole entry): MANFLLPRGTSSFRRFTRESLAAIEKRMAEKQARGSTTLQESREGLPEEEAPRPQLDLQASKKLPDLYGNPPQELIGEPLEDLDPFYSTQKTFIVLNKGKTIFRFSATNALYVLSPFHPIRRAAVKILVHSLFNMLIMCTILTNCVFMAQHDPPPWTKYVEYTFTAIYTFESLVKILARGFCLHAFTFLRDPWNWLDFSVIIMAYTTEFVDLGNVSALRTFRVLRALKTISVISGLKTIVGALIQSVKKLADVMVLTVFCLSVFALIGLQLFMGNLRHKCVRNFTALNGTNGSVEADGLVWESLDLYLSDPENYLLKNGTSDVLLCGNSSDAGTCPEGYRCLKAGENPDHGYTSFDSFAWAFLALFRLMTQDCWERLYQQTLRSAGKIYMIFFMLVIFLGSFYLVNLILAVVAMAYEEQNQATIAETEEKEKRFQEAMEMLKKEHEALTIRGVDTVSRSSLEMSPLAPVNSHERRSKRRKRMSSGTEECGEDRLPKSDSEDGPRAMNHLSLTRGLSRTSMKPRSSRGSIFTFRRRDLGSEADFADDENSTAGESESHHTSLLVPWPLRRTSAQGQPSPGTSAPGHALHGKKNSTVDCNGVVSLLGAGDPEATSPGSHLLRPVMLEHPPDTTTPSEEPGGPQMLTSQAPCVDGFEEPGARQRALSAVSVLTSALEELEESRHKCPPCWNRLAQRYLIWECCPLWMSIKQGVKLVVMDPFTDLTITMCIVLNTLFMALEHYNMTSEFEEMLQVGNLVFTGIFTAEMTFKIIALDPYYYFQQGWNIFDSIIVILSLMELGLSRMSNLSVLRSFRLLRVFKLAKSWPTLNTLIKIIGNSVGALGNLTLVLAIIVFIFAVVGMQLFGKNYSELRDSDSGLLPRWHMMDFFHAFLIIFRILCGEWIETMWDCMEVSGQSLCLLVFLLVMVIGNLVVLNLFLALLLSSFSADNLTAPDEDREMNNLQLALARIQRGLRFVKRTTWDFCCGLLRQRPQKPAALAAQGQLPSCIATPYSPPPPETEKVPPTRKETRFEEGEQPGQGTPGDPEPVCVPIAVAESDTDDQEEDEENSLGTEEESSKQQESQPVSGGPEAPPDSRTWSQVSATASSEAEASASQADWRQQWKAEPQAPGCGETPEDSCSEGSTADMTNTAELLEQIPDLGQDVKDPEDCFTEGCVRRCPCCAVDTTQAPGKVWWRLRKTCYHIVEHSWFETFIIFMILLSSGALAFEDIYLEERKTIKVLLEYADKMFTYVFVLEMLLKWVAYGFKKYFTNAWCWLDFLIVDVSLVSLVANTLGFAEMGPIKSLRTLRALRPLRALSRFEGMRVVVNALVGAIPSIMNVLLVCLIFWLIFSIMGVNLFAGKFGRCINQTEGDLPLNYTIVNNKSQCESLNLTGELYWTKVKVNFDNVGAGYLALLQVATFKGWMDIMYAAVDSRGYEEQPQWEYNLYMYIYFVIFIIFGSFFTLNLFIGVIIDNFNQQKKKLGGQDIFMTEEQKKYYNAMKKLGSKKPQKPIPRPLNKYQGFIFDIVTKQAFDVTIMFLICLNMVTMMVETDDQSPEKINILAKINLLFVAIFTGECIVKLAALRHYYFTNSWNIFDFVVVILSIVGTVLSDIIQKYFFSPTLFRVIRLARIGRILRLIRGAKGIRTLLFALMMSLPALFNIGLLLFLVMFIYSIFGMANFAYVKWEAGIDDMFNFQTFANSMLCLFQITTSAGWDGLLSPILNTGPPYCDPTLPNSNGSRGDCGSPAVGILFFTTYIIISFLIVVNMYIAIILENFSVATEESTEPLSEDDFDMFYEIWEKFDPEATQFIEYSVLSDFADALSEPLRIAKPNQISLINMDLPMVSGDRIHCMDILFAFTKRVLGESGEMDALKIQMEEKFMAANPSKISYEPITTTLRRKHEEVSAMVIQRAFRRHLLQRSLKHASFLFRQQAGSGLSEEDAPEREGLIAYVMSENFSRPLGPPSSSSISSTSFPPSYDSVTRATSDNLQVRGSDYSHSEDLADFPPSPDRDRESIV
Sequence of Cytochrome P450 3A4 (P08684 whole entry): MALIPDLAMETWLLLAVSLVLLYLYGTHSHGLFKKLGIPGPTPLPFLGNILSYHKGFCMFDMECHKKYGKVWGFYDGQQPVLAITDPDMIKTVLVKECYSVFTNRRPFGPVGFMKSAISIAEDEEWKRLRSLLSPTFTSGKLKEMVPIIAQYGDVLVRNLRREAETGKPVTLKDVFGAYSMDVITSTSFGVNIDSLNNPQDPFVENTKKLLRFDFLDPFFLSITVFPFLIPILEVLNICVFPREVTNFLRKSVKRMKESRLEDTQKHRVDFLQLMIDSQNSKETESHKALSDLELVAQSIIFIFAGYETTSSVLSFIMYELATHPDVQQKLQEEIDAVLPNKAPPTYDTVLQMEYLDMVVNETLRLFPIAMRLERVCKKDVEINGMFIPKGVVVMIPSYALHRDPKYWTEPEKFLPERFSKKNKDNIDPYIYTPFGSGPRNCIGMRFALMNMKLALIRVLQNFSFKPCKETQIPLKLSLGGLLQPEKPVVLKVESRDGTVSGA

AUC [1]: 9.64 nM·h/g
Papp (MDR1): 6.4 ×10⁻⁶ cm/s
Ki [2]: > 10 µM
fraction unbound at 2.5 µM [3]: 0.97
AUC/dose [4]: 1.4 µM·kg·h/mg
clearance [5]: 36.7 mL/min/kg
bioavailability [6]: 80%
Drug uptake [9]: 0.219 nmol/g
Drug uptake [10]: 0.088 nmol/g
Kp at 8 h [11]: 1.84
bioavailability [12]: 90%
fraction unbound at 1 µM [13]: > 0.99
AUC/dose [14]: 14.2 µM·kg·h/mg
clearance [15]: 11.7 mL/min/kg
half-life [16]: 2.3 h
Vd [17]: 2.4 L/kg
fraction unbound at 1 µM [18]: > 0.99
AUC/dose [19]: 0.61 µM·kg·h/mg
half-life [20]: 1.4 h
Activity (Cytochrome P450 3A4): Not Active
Activity (Cytochrome P450 1A2): Not Active
fraction unbound [21]: > 0.95
fraction unbound [22]: > 0.95
blood plasma ratio [23]: 0.9 to 1.1
remaining at 2 h, 10 µM [24]: 96%
remaining at 2 h, 10 µM [25]: 91%
remaining at 2 h, 10 µM [26]: 90%
remaining at 2 h, 10 µM [27]: 58%
Compound: CCNC1=N[C@@H]2[C@@H](O)[C@H](O)[C@@H](C(F)F)O[C@@H]2S1
fold change (FC) (Rattus norvegicus [7]): 2.06
fold change (FC) (Rattus norvegicus [8]): 2.17
inhibition at 30 µM (Nav1.5): < 50%
inhibition at 30 µM (IKr (KCNH2)): < 50%
Activity (Canis familiaris): Non-Toxic
Activity [28]: Non-Toxic
Activity [29]: Non-Toxic
